How the values were obtained:
[1] = biological target: T1, AR (Homo sapiens, UniProt P10275, T878A); assay: AR transcriptional activity assay (LNCaP-ARR2PB-eGFP cells); assay type: cell-based; settings: 5 nM DHT
T1 construct: The cells of LNCaP-ARR2PB-eGFP were; endogenous in cells; host or cells: LNCaP-ARR2PB-eGFP
T1 sequence (P10275 1-920 T878A): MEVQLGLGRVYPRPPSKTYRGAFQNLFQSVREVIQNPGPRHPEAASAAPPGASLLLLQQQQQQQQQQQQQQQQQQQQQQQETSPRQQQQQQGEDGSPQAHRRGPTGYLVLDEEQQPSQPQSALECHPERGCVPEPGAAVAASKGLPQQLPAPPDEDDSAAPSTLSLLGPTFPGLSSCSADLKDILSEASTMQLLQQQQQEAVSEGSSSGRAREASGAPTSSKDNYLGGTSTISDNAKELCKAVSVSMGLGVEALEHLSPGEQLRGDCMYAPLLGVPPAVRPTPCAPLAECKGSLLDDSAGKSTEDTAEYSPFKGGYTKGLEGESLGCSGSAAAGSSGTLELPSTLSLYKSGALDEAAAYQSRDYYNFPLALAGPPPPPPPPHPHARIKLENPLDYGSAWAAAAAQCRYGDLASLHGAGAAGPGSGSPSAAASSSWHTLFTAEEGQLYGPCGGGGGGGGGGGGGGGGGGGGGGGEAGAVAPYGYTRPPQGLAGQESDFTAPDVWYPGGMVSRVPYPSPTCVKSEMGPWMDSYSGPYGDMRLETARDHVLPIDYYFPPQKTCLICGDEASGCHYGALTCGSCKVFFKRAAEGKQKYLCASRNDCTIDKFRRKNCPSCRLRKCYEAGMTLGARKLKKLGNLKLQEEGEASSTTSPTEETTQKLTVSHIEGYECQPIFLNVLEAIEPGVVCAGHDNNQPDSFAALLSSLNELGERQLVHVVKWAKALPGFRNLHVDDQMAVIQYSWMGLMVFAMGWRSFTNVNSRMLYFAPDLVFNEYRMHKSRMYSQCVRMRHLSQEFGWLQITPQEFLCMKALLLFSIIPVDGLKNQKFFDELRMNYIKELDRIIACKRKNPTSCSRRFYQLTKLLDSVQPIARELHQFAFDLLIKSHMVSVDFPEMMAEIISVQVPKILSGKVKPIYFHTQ
Method: University, Hangzhou, China), respectively. […]
AR Transcriptional Activity Assay
The AR transcriptional activities were determined using the constructed LNCaP-ARR2PB-eGFP cell as previously reported.11, 12 The cells of LNCaP-ARR2PB-eGFP were […]
by seeding into a 96 -well plate (3.5× 10^4 cells/well) for 1 day incubation at 37 °C. Then, the cells were treated with 5 nM DHT and various concentrations of compounds (10 μM […]
the fluorescence intensities were determined using a Synergy H1 microplate reader

[2] = biological target: T2, AR LBP (Rattus norvegicus, UniProt P15207); assay: Competitive ligand-binding assay (PolarScreen AR competitor assay)
T2 construct: purchased Invitrogen Life Technologies A15880
T2 sequence (P15207 651-882 limits assumed): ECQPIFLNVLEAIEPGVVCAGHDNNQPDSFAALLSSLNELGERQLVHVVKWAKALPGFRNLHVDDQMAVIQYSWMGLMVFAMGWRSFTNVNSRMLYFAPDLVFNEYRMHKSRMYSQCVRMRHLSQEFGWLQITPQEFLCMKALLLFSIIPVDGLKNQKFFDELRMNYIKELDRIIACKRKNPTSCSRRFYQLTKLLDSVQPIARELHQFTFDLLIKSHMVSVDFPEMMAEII
Method: Competitive Ligand Binding Assay
The binding affinities of M17 and M17-B15 to the LBP of AR LBD were determined
using PolarScreen™ Androgen Receptor Competitor Assay Kit (#A15880, Invitrogen Life
Technologies) according to the user manual. […]

[3] = test system: secreted PSA from LNCaP cells; assay: Secreted prostate-specific antigen (PSA) assay; assay type: cell-based
Method: Secreted Prostate-Specific Antigen (PSA) Assay
After the AR transcriptional activity assay was completed, 300 μl of the media
supernatant including the secreted PSA was measured using […]® 2000 XPi
Immunoassay System (Siemens Ltd., Erlangen, Germany). […]

[4] = test system: NIH-3T3; assay: MTT cell viability assay, NIH-3T3; assay type: cell-based, murine; settings: 72 h
Method: (§1) 3-(4,5-dimethythiazol-2-yl)-2,5-diphenyl-2-H-tetrazolium bromide (MTT) colorimetric assay was employed to investigate cell viability. Cells were seeded into 96-well plates with 2-5× 10^3 cells per well (5× 10^3 cells/well for LNCaP, 22RV1, NIH-3T3, GES-1, Chang, […]
(§2) NCI-H1299, U2OS, U87) for 1 day incubation at 37 °C. Then, the cells were treated with various concentrations of compounds (22.86 nM - 50 μM) and incubated for 72 h. Then, 10 μl MTT (5 mg/ml) was added into each well and incubated for 4 h. Afterwards, 100 μl of triplex 10% SDS-0.1% HCl-phosophate-buffered saline (PBS) solutions was added into each well and incubated for overnight. The absorbance at 570 nm was measured (Eon, Bioteck, Winooski, VT). […]

[5] = test system: LNCaP; assay: MTT cell viability assay, LNCaP; assay type: cell-based; settings: 72 h
Method: as §1, §2

- IC50 ([1]; LNCaP-ARR2PB-eGFP cells, 3 days): 0.95 ± 0.39 µM
- inhibition at 10 µM ([1]; at 10 μM): 92.7%
- binding to the conventional LBP [2]: excluded
Structure (SMILES): CC(=O)Cc1nsc(NC(=O)c2cc(-c3ccc(Cl)c(Cl)c3)oc2C)n1 [Compound M17]
- inhibition of the secretion of PSA [3]: dose-dependently inhibits
- cytotoxicity against NIH-3T3 [4]: negligible cytotoxicity
- inhibition of LNCaP viability [5]: dose-dependent manner in the inhibition

Reference: publication PMC10141604, “Small-Molecule Inhibition of Androgen Receptor Dimerization as a Strategy against Prostate Cancer” (ACS Central Science, 2023)
